In ChEMBL document CHEMBL5143602, “Design, synthesis and antibacterial evaluation of pleuromutilin derivatives” (Bioorg Med Chem, 2022):
In brackets after ≈: the same amount, converted by molar mass. Activity calls are given as the source filed them. The calls are words filed in the database; no cut-off is given here.

How the values were obtained:
[1] = tested on: Mycoplasmoides pneumoniae; test: Antibacterial activity against Mycoplasma pneumoniae ATCC15531 assessed as inhibition of bacterial growth incubated for 18 hrs by two-fold serial dilution method; type: functional
HGC-27 = test: Cytotoxicity against human HGC-27 cells assessed as cell growth inhibition measured after 72 hrs by MTT assay; type: functional, cell-based; settings: HGC-27, 72 h
[2] = tested on: Staphylococcus epidermidis; test: Antibacterial activity against Staphylococcus epidermidis ATCC12228 assessed as inhibition of bacterial growth incubated for 18 hrs by two-fold serial dilution method; type: functional
[3] = tested on: Mycoplasmoides pneumoniae; test: Antibacterial activity against Mycoplasma pneumoniae ATCC29342 assessed as inhibition of bacterial growth incubated for 18 hrs by two-fold serial dilution method; type: functional
Staphylococcus aureus [4] = test: Antibacterial activity against methicillin-sensitive Staphylococcus aureus ATCC 29213 assessed as inhibition of bacterial growth incubated for 18 hrs by two-fold serial dilution method; type: functional
[5] = tested on: Mycoplasmoides pneumoniae; test: Antibacterial activity against drug resistant Mycoplasma pneumoniae assessed as inhibition of bacterial growth incubated for 18 hrs by two-fold serial dilution method; type: functional
Staphylococcus aureus [6] = test: Antibacterial activity against methicillin-resistant Staphylococcus aureus ATCC 43300 assessed as inhibition of bacterial growth incubated for 18 hrs by two-fold serial dilution method; type: functional
HepG2 = test: Cytotoxicity against human HepG2 cells assessed as cell growth inhibition measured after 72 hrs by MTT assay; type: functional, cell-based; settings: HepG2, 72 h
MCF7 = test: Cytotoxicity against human MCF7 cells assessed as cell growth inhibition measured after 72 hrs by MTT assay; type: functional, cell-based; settings: MCF7, 72 h
U-87 MG = test: Cytotoxicity against human U87 cells assessed as cell growth inhibition measured after 72 hrs by MTT assay; type: functional, cell-based, U-87MG ATCC
HT-29 = test: Cytotoxicity against human HT-29 cells assessed as cell growth inhibition measured after 72 hrs by MTT assay; type: functional, cell-based; settings: HT-29, 72 h
Staphylococcus aureus [7] = test: Bactericidal activity against methicillin-resistant Staphylococcus aureus ATCC 43300 assessed as decrease in bacterial propagation at 2 to 8 times MIC and measured after 24 hrs by time kill curve assay relative to control; type: functional, organism-based
Enterococcus faecium = test: Antibacterial activity against Enterococcus faecium ATCC19434 assessed as inhibition of bacterial growth incubated for 18 hrs by two-fold serial dilution method; type: functional
Staphylococcus aureus [8] = test: Bactericidal activity against methicillin-resistant Staphylococcus aureus ATCC 43300 at 4 times MIC and measured after 24 hrs by time kill curve assay relative to control; type: functional, organism-based

| SMILES | MIC [1] [µg/mL] | IC50 (HGC-27) [µM] | MIC [2] [µg/mL] | MIC [3] [µg/mL] | MIC (Staphylococcus aureus [4]) [µg/mL] | MIC [5] [µg/mL] | MIC (Staphylococcus aureus [6]) [µg/mL] | IC50 (HepG2) [µM] | IC50 (MCF7) [µM] | IC50 (U-87 MG) [µM] | IC50 (HT-29) [µM] | Activity (Staphylococcus aureus [7]) | MIC (Enterococcus faecium) [µg/mL] | Activity (Staphylococcus aureus [8]) |
| --- | --- | --- | --- | --- | --- | --- | --- | --- | --- | --- | --- | --- | --- | --- |
| C=C[C@]1(C)C[C@@H](OC(=O)CNC(=O)Nc2ccc(OC)cc2)[C@]2(C)[C@H](C)CC[C@]3(CCC(=O)[C@H]32)[C@@H](C)[C@@H]1O | 0.125 (≈ 0.237 µM) | > 10 | > 64 | 0.0625 (≈ 0.119 µM) | 0.0625 (≈ 0.119 µM) | 0.5 (≈ 0.949 µM) | 0.5 (≈ 0.949 µM) | > 10 | > 10 | > 10 | > 10 | Active | 8 (≈ 15.2 µM) | – |
| C=C[C@]1(C)C[C@@H](OC(=O)CSCCN(CC)CC)[C@]2(C)[C@H](C)CC[C@]3(CCC(=O)[C@H]32)[C@@H](C)[C@@H]1O [TIAMULIN] | – | > 10 | 32 (≈ 64.8 µM) | – | 0.5 (≈ 1.01 µM) | – | 0.25 (≈ 0.506 µM) | > 10 | > 10 | > 10 | > 10 | – | 16 (≈ 32.4 µM) | Active |
| C=C[C@]1(C)C[C@@H](OC(=O)CNC(=O)Nc2ccc(F)cc2F)[C@]2(C)[C@H](C)CC[C@]3(CCC(=O)[C@H]32)[C@@H](C)[C@@H]1O | 0.25 (≈ 0.469 µM) | > 10 | > 64 | 0.125 (≈ 0.235 µM) | 0.25 (≈ 0.469 µM) | 1 (≈ 1.88 µM) | 0.25 (≈ 0.469 µM) | > 10 | > 10 | > 10 | > 10 | – | 16 (≈ 30 µM) | – |
